Tested on: Water Avoidance Stress-Induced Hyperdefecation Model
Test: Inhibition test of the number of stools using water avoidance stress-induced hyperdefecation model
Assay type: in vivo, rat
Procedure: Each of rats was freely allowed to have an enteral nutritional supplement, ELENTAL (0.25 g/mL; manufactured by Ajinomoto Co., Inc.) contained in a water-feeding bottle for seven days before a treatment with TNBS (2,4,6-trinitrobenzene sulfonic acid). The rats were fasted from the day before the TNBS administration day, and drinking water instead of ELENTAL was contained in the water-feeding bottle. On the day of the TNBS treatment (the rat: 8-week-old), 10 mL of physiological saline was intrarectally injected to the rat under anesthetization with ethyl ether to wash the enteral content. After the washing, the rat was allowed to stand longer than 2 hours, and 1 mL of 5 or 30 mg/head of TNBS in 40% ethanol/physiological saline (vehicle) was applied (injected) through the rectal injection under anesthetization with pentobarbital. Further, a silicone plug was inserted to the anus of the rat to stay the TNBS solution in the injection site, and the surrounding of the anus was fixed with an adhesive cloth elastic bandage (Elastopore). After about four hours of the TNBS treatment, the Elastopore and the silicone plug were removed from the rat, and 10 mL of physiological saline was intrarectally injected to the rat to discharge the enteral content. The animal was conventionally bled for four weeks from the TNBS treatment to recover from colitis. Moreover, to each of positive control rats, alosetron was orally administered singly before one hour of the stress loading.
Moreover, to each of positive control rats, alosetron (10 mg/kg) was orally administered singly before one hour of the water-stress loading. On the day of the measurement of the number of stools (the rat: 12-week-old), the animal was allowed to stand on a block (10 cm×5 cm×10 cm) installed in a water bath (about 50×30×40 cm, water depth: 5 cm) for one hour. However, each of animals on which no water environment stress was loaded (normal group) was allowed to stand in a waterless bath. The total number of stools excreted for the one hour after the animal was allowed to stand in the water bath was measured as the number of stools. Moreover, the nature of stools were compared and examined.

SMILES | number of stools excreted for one hour compared with the control group (alosetron 10 mg/kg orally, single dose one hour before water-stress loading, p<0.001, t-test) | number of stools excreted for one hour compared with the control (rifaximin 100 mg/kg orally for 9 days, rats recovered from TNBS colitis, p<0.001, Dunnett test) | dose dependence of the defecation inhibition effect (rifaximin 6.25, 25 and 100 mg/kg orally for 9 days) | nature of stool (rifaximin-administered group, orally for 9 days) | motility of the intestinal tract (rifaximin-administered group, concluded from number and nature of stools)
Cc1[nH]cnc1CN1CCc2c(c3ccccc3n2C)C1=O [alosetron] | showed a significantly effect compared with the control group | – | – | – | –
CO[C@H]1/C=C/O[C@@]2(C)Oc3c(C)c(O)c4c(O)c(c5c(nc6cc(C)ccn65)c4c3C2=O)NC(=O)/C(C)=C\C=C\[C@H](C)[C@H](O)[C@@H](C)[C@@H](O)[C@@H](C)[C@H](OC(C)=O)[C@@H]1C [rifaximin] | – | decreased the number of stools compared with the control | depended on the dose | normalization in the nature of stool was observed | the motility of the intestinal tract was improved
